EP4772186A1, “USE AND COMPOSITION OF POSTBIOTIC OF LACTOBACILLUS PARACASEI ET-22” (Inner Mongolia Yili Industrial Group Co., Ltd., priority 2023, dated 2025)

Test system: VSC concentration
Assay: in vitro Halimeter determination of VSC concentration in saliva fermentation
Assay type: cell-based, halitosis subjects (saliva)
Settings: compared with CK group, anaerobic cultivation 10 hours
Experimental: Fresh saliva was collected from 10 halitosis subjects (Halimeter index >120). Subjects were required not to consume any food or drink for 2 hours before donating saliva. Saliva was directly spat into a saliva collection tube, 5 ml per person, and mixed. The mixture was centrifuged at 4500 rpm for 10 minutes, and the supernatant was collected, aliquoted, and stored at -80°C for subsequent experimental studies.
(§1) Lysate observation group: In a 10 ml sample vial, 100 µl of saliva was added first, followed by the separate addition of ET-22 viable bacteria (1.0×10^9 CFU/ml), ET-22 heat-inactivated bacterial cells (obtained by inactivating viable bacteria at 1.0×10^9 CFU/ml), and lysate (obtained by inactivating and then filtering viable bacteria at 1.0×10^9 CFU/ml), each at 100µl. Then, 1.8 ml of SHI medium was added. After filling with nitrogen, anaerobic cultivation was performed for 10 hours. Then, the obtained culture was placed in a 60°C water bath for 30-min incubation. VSC concentration was measured using the in vitro Halimeter method.
(§2) Group of two nucleotides: In a 10 ml sample vial, 100 µl of saliva was added first, followed by the separate addition of ET-22 viable bacteria (1.0×10^9 CFU/ml), ET-22 heat-inactivated bacterial cells (obtained by inactivating viable bacteria at 1.0×10^9 CFU/ml), NAD, and FAD (500 µg/ml, 100 µg/ml, 10 µg/ml), each at 100µl. Then, 1.8 ml of SHI medium was added. After filling with nitrogen, anaerobic cultivation was performed for 10 hours. Then, the obtained culture was placed in a 60°C water bath for 30-min incubation. VSC concentration was measured using the in vitro Halimeter method.
as §2, with “five organic acids:” for “two nucleotides:”, “heat-inactivating” for “inactivating”, “CFU/ml),” for “CFU/ml), NAD,”, “five organic acid components” for “FAD”
as §2, with “Observation group” for “Group”, “four polypeptides:” for “two nucleotides:”, “heat-inactivating” for “inactivating”, “CFU/ml),” for “CFU/ml), NAD,”, “components of four polypeptides” for “FAD”
as §1, with “Peptidoglycan” for “Lysate observation”, “peptidoglycan (peptidoglycan extracted from” for “lysate (obtained by inactivating and then filtering”, “CFU/ml).” for “CFU/ml), each at 100µl.”, “method. […]” for “method.”

Measured: VSC concentration

Cc1cc2nc3c(=O)[nH]c(=O)nc-3n(C[C@H](O)[C@H](O)[C@H](O)COP(=O)(O)OP(=O)(O)OC[C@H]3O[C@@H](n4cnc5c(N)ncnc54)[C@H](O)[C@@H]3O)c2cc1C [FAD, Flavin adenine dinucleotide (FAD)]
no significant change: high concentration (500 µg/ml) | low concentration (10 µg/ml) | medium concentration (100 µg/ml)
